Measured values taken from patent publication US20250318997A1, “COMPOSITIONS AND METHODS FOR PREVENTING DENTAL CARIES” (THE TRUSTEES OF THE UNIVERSITY OF PENNSYLVANIA, priority 2022, published 2025).
One block for each molecule: values may come before it.

Columns and labels:
[1] = Stability of SnF2 in aqueous solution / sodium acetate buffer (photographs, UV-vis); conditions: SnF2 alone, 0.1 M sodium acetate buffer pH 5.5; FIG. 2B
From the text: It is noteworthy that SnF2 has limited stability in aqueous solutions owing to its high susceptibility to hydrolysis and oxidation, requiring chemical additives (e.g., chelating agents) or water removal, which can reduce fluoride bioavailability. […] To further investigate the stability of SnF2 in the presence of Fer, SnF2 (250 ppm of F) was mixed with increasing amounts of Fer in 0.1 M sodium acetate buffer at different pH values.
The peak at 4.0-4.2 ppm (denoted as “a”) is attributed to the protons of the carboxymethyl moieties, as determined previously. […] Note that similar ^1H NMR studies of SnF2 and Fer are not possible due to the superparamagnetic nature of Fer interfering with ^1H NMR measurements.
The Fer formulation also contains mannitol, which is an antioxidant. Since antioxidants can prevent the oxidation of SnF2, SnF2 was added to various amounts of mannitol (1-10 mg/ml).

[2] = Hydroxyl radical production by PL using coumarin; conditions: pH 4.5, H2O2; FIGS. 3F, 15
Description: Comparison of hydroxyl radical (·OH) production: ·OH generated by Fer and Fer+SnF2 in 0.1 M sodium acetate buffer (pH 4.5) was compared by PL technique using coumarin (Sigma-Aldrich) as a ·OH trapping molecule. First, stock solution of Fer (0.5 mg of Fe/ml) with or without SnF2 (0.5 mg/ml) was incubated in 0.1 M sodium acetate buffer (pH 4.5) for 1 h. Afterward, Fer (20 μg of Fe/ml) with or without SnF2 (20 μg/ml) was mixed with coumarin (0.1 mM) in a 10 mm path length cuvette, and then H2O2 (1%, v/v) was added to the reaction mixture to initiate the reaction. The PL intensity was recorded at 452 nm at different incubation times with an excitation wavelength of 332 nm. For the control, all the experimental conditions were the same, except that the testing samples were not used.

[3] = TMB colorimetric assay for peroxidase-like (catalytic) activity / ROS; conditions: for effect of the salt on the catalytic activity of Fer: salt 20 (or 30) μg/ml, Fer 20 μg of Fe/ml, pH 4.5, FIGS. 4A-4C
From the text: To explore whether SnF2 could produce ROS, the 3,3′,5,5′-tetramethylbenzidine (TMB) colorimetric assay was used for peroxidase-like activity following a previously published protocol, with some modifications. TMB is a chromogenic compound that yields a blue color upon oxidation with an absorption peak at 652 nm in the presence of H2O2.
ROS measurement using 3,3′,5,5′-tetramethylbenzidine (TMB) assay: The catalytic activity of Fer+SnF2 was investigated by a colorimetric assay using TMB (Sigma-Aldrich) as a probe, which generates a blue color in the presence of H2O2 after reacting with ROS. Briefly, the stock solution of TMB was made in DMF (25 mg/ml). Fer (0.5 mg of Fe/ml) and SnF2 (0.5 mg/ml, Sigma-Aldrich) were incubated (separately or combined) at room temperature in 0.1 M of sodium acetate buffer (pH 4.5) for 1 h. Afterward, 40 μl of the testing sample (Fer, SnF2, or Fer+SnF2) and 4 μl of TMB (100 μg) were added into 922 μl of 0.1 M sodium acetate buffer (pH 4.5), and absorbance was recorded at 652 nm. Then, 34 μl of H2O2 (1%, v/v) was added. After 10 min additional incubation in the dark, catalytic activities was monitored at 652 nm. For the control, 40 μl of the buffer solution was taken instead of the testing sample. To examine the effect of DMSO, a quencher of hydroxyl radical (·OH), various amounts of DMSO (0-10%) were used. The effect of pH on the catalytic activity of the combined treatment of Fer+SnF2 was determined at three different pH values (4.5, 5.5, and 6.5), as described above. The comparison of the catalytic activity of Fer+NaF and Fer+SnF2 was also conducted using the same protocol as described above, except after adding H2O2, the reaction mixture was incubated only for 5 min.
Subsequently, 40 μl of the combined mixture of Fer (20 μg of Fe) and BaF2 (20 or 30 μg) and 4 μl of TMB (100 μg) were mixed into 922 μl of 0.1 M sodium acetate buffer (pH 4.5). Afterward, H2O2 (1%) was added. Finally, the absorbance of TMB was monitored at 652 nm after 5 min of incubation. In a similar way, the catalytic activity of SnCl2 (final concentration 20 μg/ml, Sigma-Aldrich) was also investigated. The effect of incubation time on the catalytic activity was investigated after incubating Fer and SnF2 for a predetermined time.
Additionally, the catalytic activity of the released iron and nanoparticle pellet was investigated at pH 4.5 via TMB assay.

[4] = system: S. mutans biofilm; assay: In vitro biofilm model on saliva-coated hydroxyapatite disc: viable cells (CFU) and biomass (dry weight); type: cell-based, Streptococcus mutans UA159
Description: Antibiofilm activity was evaluated using different concentrations of Fer and SnF2 in the presence of H2O2 using the saliva-coated hydroxyapatite disc (tooth enamel mimic) model in the presence of sucrose. Initially, Fer (1 mg of Fe/ml) was mixed with various concentrations of SnF2 (0-250 ppm of F), and the number of viable cells and biomass were determined.
Biofilms were formed using the saliva-coated hydroxyapatite disc (sHA) model as described elsewhere. Streptococcus mutans UA159, a proven virulent and well-characterized cariogenic pathogen, were grown in ultra-filtered (10 kDa, cutoff; Millipore, Billerica, MA) tryptone-yeast extract (UFTYE) broth at 37° C. and 5% CO2 to mid-exponential phase. Briefly, HA discs (surface area of 2.7±0.2 cm^2; Clarkson Chromatography Inc., South Williamsport, PA) were vertically suspended in 24-well plates using a custom-made wire disc holder and coated with filter-sterilized human saliva for 1 h at 37° C. Each sHA disc was inoculated with ˜2×10^5 CFU of S. mutans per ml in UFTYE containing 1% sucrose at 37° C. and 5% CO2. Topical treatment of Fer and SnF2 or vehicle control was performed twice daily for 10 min at 0, 6, 19, and 29 h. The culture medium was changed twice daily (at 19 h and 29 h). At the end of the experimental period (43 h), the biofilms were placed in 2.8 ml of H2O2 (1%, v/v) for 5 min. After H2O2 exposure, the biofilms were removed and homogenized via bath sonication followed by probe sonication (at an output of 7 W for 30 s). The homogenized suspension was serially diluted and plated onto blood agar plates using an automated EddyJet Spiral Plater (IUL, SA, Barcelona, Spain). The numbers of viable cells in each biofilm were calculated by counting CFU. The remaining suspension was centrifuged at 5500 g for 10 min, the resulting cell pellets were then washed, oven-dried, and weighed. SnF2 and NaF treatment groups were performed according to the same procedure.

[5] = Stability of Fer/SnF2 with citric acid after 1 month at room temperature (photographs, hydrodynamic diameter); type: physicochemical
Description: FIG. 21 provides photographs of Fer+SnF2 when mixed with various amounts of citric acid after 1 month incubation at room temperature.

SMILES: [F][Sn][F] [SnF2, stannous fluoride]
appearance of SnF2 solution [1]: Immediate aggregation
·OH production (PL intensity of 7-hydroxycoumarin at 452 nm) [2]: did not produce a noticeable amount of ·OH
ROS production / catalytic activity (TMB absorption at 652 nm) ([3]; pH 4.5, H2O2, FIGS. 3A, 3B): did not produce a noticeable amount of ROS
effect of post-mixed SnF2 on the catalytic activity of Fer ([3]; post-mixed, not pre-mixed and incubated, FIG. 20): reduced the catalytic activity of Fer
growth of S. mutans (bacterial viability) ([4]; 1000 ppm of F, compared with NaF, FIG. 9A): significantly inhibit the growth of S. mutans
biomass ([4]; 1000 ppm of F, compared with NaF, FIG. 9B): reduce biomass
biomass ([4]; SnF2 250 ppm of F alone, FIG. 1D): substantially reduce biomass

SMILES: [F-].[Na+] [NaF, sodium fluoride]
effect of the salt on the catalytic activity of Fer [3]: Neither NaF nor BaF2 increased the catalytic activity of Fer

SMILES: [Cl][Sn][Cl] [SnCl2]
effect of the salt on the catalytic activity of Fer [3]: enhanced the catalytic activity of Fer

amount of citric acid that improves the stability of the Fer/SnF2 formulation [5]: ≥ 125 µg/mL
SMILES: O=C(O)CC(O)(CC(=O)O)C(=O)O [citric acid]

SMILES: [Ba+2].[F-].[F-] [BaF2, barium fluoride]
effect of the salt on the catalytic activity of Fer [3]: Neither NaF nor BaF2 increased the catalytic activity of Fer
